The structures appear in SMILES notation.

In patent publication US20110086759A1, “CHEMICAL COMPOUNDS” (SYNGENTA CROP PROTECTION, INC., priority 2007, published 2011) one finds pest or weed control data, which are given here for eight compounds.

Common to all, as to assay type: in vivo
The subject of test [1] is Ipomea hederaceae (IPOHE). As to the kind of experiment: Post-emergence biological efficacy, glasshouse pot test. The following applies: Ipomoea hederacea, 312 h; Rate 1,000 g/ha; post-emergence spray; evaluated after 13 days (100=total damage to plant; 0=no damage to plant); read-out: Percentage damage caused to weed species, post-emergence, IPOHE. The procedure, abridged:
(§1)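 Pot-grown weeds were sprayed 8 days after sowing with test compound in acetone/water (50:50) with 0.5% Tween 20 at 1000 or 250 g/ha. Glasshouse at 24/16° C day/night, 14 h light, 65% humidity. Damage scored 0-100 (100 = total damage) after 13 days.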

Test [2] concerns Amaranthus retoflexus (AMARE). The description is as above. Particulars: Amaranthus retroflexus, 312 h; Rate 1,000 g/ha; post-emergence spray; evaluated after 13 days (100=total damage to plant; 0=no damage to plant); read-out: Percentage damage caused to weed species, post-emergence, AMARE. The method, boiled down: as §1
In test [3] the test system is Solanum nigrum (SOLNI). Described as above. Particulars: 312 h, Rate 1,000 g/ha, post-emergence spray, evaluated after 13 days (100=total damage to plant; 0=no damage to plant), read-out: Percentage damage caused to weed species, post-emergence, SOLNI. The method, boiled down:
as §1

Test [4] concerns Echinochloa crus-galli (ECHCG). Described as above. Particulars: 312 h, Rate 1,000 g/ha, post-emergence spray, evaluated after 13 days (100=total damage to plant; 0=no damage to plant), read-out: Percentage damage caused to weed species, post-emergence, ECHCG. The procedure, abridged:
as §1

Test [5] concerns Alopecurus myosuroides (ALOMY). The description is as above. Particulars: 312 h, Rate 1,000 g/ha, post-emergence spray, evaluated after 13 days (100=total damage to plant; 0=no damage to plant), read-out: Percentage damage caused to weed species, post-emergence, ALOMY. The procedure, abridged:
as §1

The subject of test [6] is Setaria faberi (SETFA). The description is as above. The following applies: 312 h, Rate 1,000 g/ha, post-emergence spray, evaluated after 13 days (100=total damage to plant; 0=no damage to plant), read-out: Percentage damage caused to weed species, post-emergence, SETFA. The procedure, abridged:
as §1

Test [7] has as its system Ipomea hederaceae (IPOHE). Nature of the test: Pre-emergence biological efficacy, glasshouse pot test. Particulars: Ipomoea hederacea, 312 h; pre-emergence, rate 1,000 g/ha, evaluated after 13 days (100=total damage to plant; 0=no damage); read-out: Percentage damage caused to weed species, IPOHE. The procedure, abridged: (§2)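 Damage rated 0–100 (100 = total kill) 13 days post-spray. Pots of standard soil were sown and sprayed after one day with test compound at 1000 or 250 g/ha in acetone/water (50:50) plus 0.5% Tween 20.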

Test [8] relates to Amaranthus retoflexus (AMARE). The description is as above. The following applies: Amaranthus retroflexus, 312 h; pre-emergence, rate 1,000 g/ha, evaluated after 13 days (100=total damage to plant; 0=no damage); read-out: Percentage damage caused to weed species, AMARE. The method, boiled down: as §2
Test [9] concerns Solanum nigrum (SOLNI). The description is as above. Particulars: 312 h, pre-emergence, rate 1,000 g/ha, evaluated after 13 days (100=total damage to plant; 0=no damage), read-out: Percentage damage caused to weed species, SOLNI. The procedure, abridged: as §2
Test [10] relates to Echinochloa crus-galli (ECHCG). The test is described as above. Particulars: 312 h, pre-emergence, rate 1,000 g/ha, evaluated after 13 days (100=total damage to plant; 0=no damage), read-out: Percentage damage caused to weed species, ECHCG. The procedure, abridged: as §2
The test system of test [11] is Alopecurus myosuroides (ALOMY). The test is described as above. The following applies: 312 h, pre-emergence, rate 1,000 g/ha, evaluated after 13 days (100=total damage to plant; 0=no damage), read-out: Percentage damage caused to weed species, ALOMY. The procedure, abridged:
as §2

The subject of test [12] is Setaria faberi (SETFA). The test is described as above. Particulars: 312 h, pre-emergence, rate 1,000 g/ha, evaluated after 13 days (100=total damage to plant; 0=no damage), read-out: Percentage damage caused to weed species, SETFA. The method, boiled down: as §2

Take `COC(=O)c1nc(-c2ccc(OC)cc2)nc(NCc2ccco2)c1Cl` [Compound 250-48, 5-Chloro-4-(furan-2-ylmethylamino)-2-(4-methoxyphenyl)-6-methoxycarbonyl-pyrimidine]: the pest or weed control at 1000 g/ha in [1] turned out to be 30%; in test [2], 90%; with Solanum nigrum (SOLNI) [3], 40%; in test [4], 30%; in test [5] it was 0%; in the test on Setaria faberi (SETFA) [6], 50%. The pest or weed control at 1000 g/ha in test [7] was 0%; in test [8], 30%; in the test with Solanum nigrum (SOLNI) [9], 0%; in test [10] it was 0%; in [11], 0%; with Setaria faberi (SETFA) [12] it was 20%.

As to `COC(=O)c1nc(-c2ccc(OC)cc2C)nc(NCc2ccco2)c1Cl` [Compound 251-48, 5-Chloro-4-(furan-2-yl-methylamino)-2-(4-methoxy-2-methyl-pheny)-6-methoxy-carbonylpyrimidine], the pest or weed control at 1000 g/ha in [1] stood at 0%; in [2], 0%; with Solanum nigrum (SOLNI) [3], 20%; in test [4], 0%; in test [5] it was 0%; in the test with Setaria faberi (SETFA) [6], 0%. For the same compound, the pest or weed control at 1000 g/ha (in test [7]; in test [8]; in the test on Solanum nigrum (SOLNI) [9]; in test [10]; in test [11]; in the test with Setaria faberi (SETFA) [12]) was 0% throughout.

As for `COC(=O)c1nc(-c2ccc(OC)cc2OC)nc(NCc2ccco2)c1Cl` [Compound 252-48, 5-Chloro-2-(2,4-dimethoxyphenyl)-4-(furan-2-yl-methyl-amino)-6-methoxy-carbonylpyrimidine], the pest or weed control at 1000 g/ha came out at 30% in test [1]; 30% in [2]; 20% in the test on Solanum nigrum (SOLNI) [3]; 0% in test [4]; 0% in test [5]; 0% in the test on Setaria faberi (SETFA) [6]. The pest or weed control at 1000 g/ha turned out to be 0% in test [7]; 0% in test [8]; 0% in the test with Solanum nigrum (SOLNI) [9]; 0% in [10]; 0% in test [11]; 20% with Setaria faberi (SETFA) [12].

Consider `COC(=O)c1nc(-c2ccc(OC)c(Cl)c2)nc(NCc2ccco2)c1Cl` [Compound 254-48, 5-Chloro-2-(3-chloro-4-methoxyphenyl)-4-(furan-2-yl-methyl-amino)-6-methoxy-carbonylpyrimidine], for which the pest or weed control at 1000 g/ha worked out at 10% in test [1]; 20% in test [2]; 30% in the test on Solanum nigrum (SOLNI) [3]; 0% in test [4]; 0% in test [5]; 0% in the test with Setaria faberi (SETFA) [6]. In addition, the pest or weed control at 1000 g/ha (in test [7]; in test [8]; in the test with Solanum nigrum (SOLNI) [9]; in test [10]; in [11]; in the test on Setaria faberi (SETFA) [12]) was 0% each time.

`COC(=O)c1nc(-c2ccc(C)c(C)c2)nc(NCc2ccco2)c1Cl` [Compound 255-48, 5-Chloro-2-(3,4-dimethylphenyl)-4-(furan-2-yl-methyl-amino)-6-methoxy-carbonylpyrimidine]: the pest or weed control at 1000 g/ha is 10% in test [1]; 70% in [2]; 40% with Solanum nigrum (SOLNI) [3]; 0% in [4]; 0% in test [5]; 0% with Setaria faberi (SETFA) [6]. The pest or weed control at 1000 g/ha in test [7] came out at 10%; in test [8] it was 20%; with Solanum nigrum (SOLNI) [9], 0%; in [10], 0%; in [11] it was 0%; in the test on Setaria faberi (SETFA) [12], 0%.

Regarding `COC(=O)c1nc(-c2ccc(C)c([N+](=O)[O-])c2)nc(NCc2ccco2)c1Cl` [Compound 256-48, 5-Chloro-4-(furan-2-ylmethylamino)-6-methoxycarbonyl-2-(4-methyl-3-nitrophenyl)-pyrimidine], the pest or weed control at 1000 g/ha in test [1] is 20%; in test [2], 30%; with Solanum nigrum (SOLNI) [3] it was 50%; in test [4], 0%; in [5] it was 0%; with Setaria faberi (SETFA) [6], 10%. Besides, the pest or weed control at 1000 g/ha worked out at 0% in [7]; 80% in test [8]; 0% in the test on Solanum nigrum (SOLNI) [9]; 0% in [10]; 0% in test [11]; 0% with Setaria faberi (SETFA) [12].

`COC(=O)c1nc(-c2ccc(C)cc2F)nc(NCc2ccco2)c1Cl` [Compound 257-48, 5-Chloro-2-(2-fluoro-4-methylphenyl)-4-(furan-2-ylmethylamino)-6-methoxycarbonyl-pyrimidine]: the pest or weed control at 1000 g/ha was 60% in test [1]; 100% in test [2]; 40% in the test with Solanum nigrum (SOLNI) [3]; 10% in [4]; 20% in [5]; 0% in the test on Setaria faberi (SETFA) [6]. Besides, the pest or weed control at 1000 g/ha in test [7] came out at 30%; in test [8] it was 90%; in the test on Solanum nigrum (SOLNI) [9], 10%; in test [10], 40%; in test [11], 20%; in the test with Setaria faberi (SETFA) [12] it was 10%.

As to `COC(=O)c1nc(-c2ccc(OC)cc2F)nc(NCc2ccco2)c1Cl` [Compound 258-48, 5-Chloro-2-(2-fluoro-4-methoxyphenyl)-4-(furan-2-ylmethyl-amino)-6-methoxy-carbonylpyrimidine], the pest or weed control at 1000 g/ha came to 30% in test [1]; 90% in test [2]; 50% in the test with Solanum nigrum (SOLNI) [3]; 0% in test [4]; 10% in [5]; 40% in the test with Setaria faberi (SETFA) [6]. For the same compound, the pest or weed control at 1000 g/ha turned out to be 30% in test [7]; 70% in [8]; 0% in the test on Solanum nigrum (SOLNI) [9]; 0% in test [10]; 30% in test [11]; 20% with Setaria faberi (SETFA) [12].
